Reference: ChEMBL document CHEMBL6109106, “Rational design, synthesis and anti-inflammatory activity of 6-substituted dihydrobenzophenanthridine derivatives” (Bioorg Med Chem, 2025)
The source made the active and inactive calls. The rule behind the calls is not given here.

How the values were obtained:
RAW264.7 [1] = assay: Anti-inflammatory activity in LPS-induced mouse RAW264.7 cells assessed as NO emission at 20 uM preincubated with compound for 1 hrs followed by LPS stimulation and measured after 24 hrs by Griess reagent based analysis (reference value: 14.05 +/- 1.19 microM); assay type: functional; conditions: time 25 hrs
RAW264.7 [2] = assay: Anti-inflammatory activity in LPS-induced mouse RAW264.7 cells assessed as inhibition of NO release at 20 uM preincubated with compound for 1 hrs followed by LPS stimulation and measured after 24 hrs by Griess reagent based analysis (reference value: 0 %); assay type: functional; conditions: for inhibition at 20 µM: Mus musculus; for inhibition (INH): time 25 hrs
[3] = (§1) Cytotoxicity against mouse RAW264.7 cells assessed as survival rate at 20 uM incubated for 24 hrs by MTT assay (reference value: 100 %); assay type: toxicity, cell-based; conditions: RAW264.7 cells, read-out: Survival
RAW264.7 [4] = assay: as §1; assay type: toxicity, cell-based; conditions: raw264.7, 24 h, 20 µM
Mus musculus [5] = assay: Anti-inflammatory activity in DSS-induced acute colitis male C57BL/6 mouse model assessed as decrease in TNF-alpha expression level in colon at 20 to 80 mg/kg, po administered for 7 days by immunohistochemical staining based analysis; assay type: functional, organism-based; conditions: dose 20-80 mg/kg, time 7.0 day
RAW264.7 [6] = assay: Anti-inflammatory activity in LPS-induced mouse RAW264.7 cells assessed as reduction in IL-6 level preincubated with compound for 1 hrs followed by LPS stimulation and measured after 24 hrs by ELISA; assay type: functional, cell-based; conditions: dose 10-160 µM, time 25.0 hrs
RAW264.7 [7] = assay: Anti-inflammatory activity in LPS-induced mouse RAW264.7 cells assessed as reduction in IL-6 level at >40 uM preincubated with compound for 1 hrs followed by LPS stimulation and measured after 24 hrs by ELISA; assay type: functional, cell-based; conditions: time 25.0 hrs
Mus musculus [8] = assay: Anti-inflammatory activity in DSS-induced acute colitis male C57BL/6 mouse model assessed as decrease in IL1beta expression level in colon at 20 to 80 mg/kg, po administered for 7 days by immunohistochemical staining based analysis; assay type: functional, organism-based; conditions: dose 20-80 mg/kg, time 7.0 day
RAW264.7 [9] = assay: Cytotoxicity against mouse RAW264.7 cells assessed as reduction in cell viability up to 160 uM incubated for 24 hrs by MTT assay; assay type: toxicity, cell-based; conditions: raw264.7, 24 h
RAW264.7 [10] = assay: Anti-inflammatory activity in LPS-induced mouse RAW264.7 cells assessed as reduction in TNFalpha level at >20 uM preincubated with compound for 1 hrs followed by LPS stimulation and measured after 24 hrs by ELISA; assay type: functional, cell-based; conditions: time 25.0 hrs
Mus musculus [11] = assay: Anti-inflammatory activity in DSS-induced acute colitis male C57BL/6 mouse model assessed as complete colonic mucosa with crypts administered orally for 7 days by H and E staining based analysis; assay type: functional, organism-based; conditions: dose 20-80 mg/kg, route po, time 7.0 day
RAW264.7 [12] = assay: Anti-inflammatory activity in LPS-induced mouse RAW264.7 cells assessed as reduction in TNFalpha level preincubated with compound for 1 hrs followed by LPS stimulation and measured after 24 hrs by ELISA; assay type: functional, cell-based; conditions: dose 10-160 µM, time 25.0 hrs
Mus musculus [13] = assay: Anti-inflammatory activity in DSS-induced acute colitis male C57BL/6 mouse model assessed as decrease in IL6 expression level in colon at 20 to 80 mg/kg, po administered for 7 days by immunohistochemical staining based analysis; assay type: functional, organism-based; conditions: dose 20-80 mg/kg, time 7.0 day
Mus musculus [14] = assay: Anti-inflammatory activity in DSS-induced acute colitis male C57BL/6 mouse model assessed as increase in intestine length at 20 to 80 mg/kg, po administered for 7 days; assay type: functional, organism-based; conditions: dose 20-80 mg/kg, time 7.0 day
Mus musculus [15] = assay: Anti-inflammatory activity in DSS-induced acute colitis male C57BL/6 mouse model assessed as reduction in infiltration of inflammatory cells in colon administered orally for 7 days by H and E staining based analysis; assay type: functional, organism-based; conditions: dose 20-80 mg/kg, route po, time 7.0 day
Mus musculus [16] = assay: Anti-inflammatory activity in DSS-induced acute colitis male C57BL/6 mouse model assessed as complete colonic mucosa with crypts at 200 mg/kg, po administered for 7 days by H and E staining based analysis; assay type: functional, organism-based; conditions: time 7.0 day
Mus musculus [17] = assay: Anti-inflammatory activity in DSS-induced acute colitis male C57BL/6 mouse model assessed as reduction in infiltration of inflammatory cells in colon at 200 mg/kg, po administered for 7 days by H and E staining based analysis; assay type: functional, organism-based; conditions: time 7.0 day

SMILES | Activity (RAW264.7 [1]) [µM] | inhibition at 20 µM (RAW264.7 [2]; RAW264.7, 25 h) [%] | viability at 24 h, 20 µM [3] [%] | further results
COC(=O)C(C)C1c2c(ccc(OC)c2OC)-c2ccc3cc4c(cc3c2N1C)OCO4 (centres undefined) | 11.2 | 19 | 101 | –
C=C(CC1c2c(ccc(OC)c2OC)-c2ccc3cc4c(cc3c2N1C)OCO4)C(=O)OC (centres undefined) | 10.14 | 27.2 | 130 | –
COc1ccc2c(c1OC)C(CCO)N(C)c1c-2ccc2cc3c(cc12)OCO3 (centres undefined) | 9.75 | 30.1 | 103 | –
CN1c2c(ccc3cc4c(cc23)OCO4)-c2ccc3c(c2C1CCO)OCO3 (centres undefined) | 11.57 | 10.1 | 160 | –
CCCCNC(=O)CC1c2c(ccc3c2OCO3)-c2ccc3cc4c(cc3c2N1C)OCO4 (centres undefined) | 10.48 | 24.5 | 101 | –
CCOC(=O)CC1c2c(ccc3c2OCO3)-c2ccc3cc4c(cc3c2N1C)OCO4 (centres undefined) | 10.5 | 24.5 | 109 | –
CCCOC(=O)C(C)C1c2c(ccc(OC)c2OC)-c2ccc3cc4c(cc3c2N1C)OCO4 (centres undefined) | 12.5 | 10.3 | 122 | –
COc1ccc2c(c1OC)C(CC(=O)O)N(C)c1c-2ccc2cc3c(cc12)OCO3 (centres undefined) | 9.1 | – | – | inhibition (INH) (RAW264.7 [2]): 34.87%; Survival (RAW264.7 [4]): 82.98%
COc1ccc2c(c1OC)C(CC(=O)Nc1ccccc1)N(C)c1c-2ccc2cc3c(cc12)OCO3 (centres undefined) | 8.16 | 41.6 | 136 | Activity (Mus musculus [5]): Active; Activity (RAW264.7 [6]): Dose-dependent-effect; Activity (RAW264.7 [7]): Active; Activity (Mus musculus [8]): Active; Activity (RAW264.7 [9]): Non-toxic; Activity (RAW264.7 [10]): Active; Activity (Mus musculus [11]): Dose-dependent-effect; Activity (RAW264.7 [12]): Dose-dependent-effect; Activity (Mus musculus [13]): Active; Activity (Mus musculus [14]): Active; Activity (Mus musculus [15]): Dose-dependent-effect
CN1Cc2c(ccc3c2OCO3)-c2ccc3cc4c(cc3c21)OCO4 [DIHYDROSANGUINARINE] | 10.36 | – | 88.7 | inhibition at 20 µM (RAW264.7 [2]; RAW264.7, time 25 hrs): 26.1%
COC(=O)CCC1c2c(ccc(OC)c2OC)-c2ccc3cc4c(cc3c2N1C)OCO4 (centres undefined) | 10.11 | 27.5 | 97.7 | –
CCOC(=O)CC1c2c(ccc(OC)c2OC)-c2ccc3cc4c(cc3c2N1C)OCO4 (centres undefined) | 9.56 | 31.3 | 94.4 | –
CN1c2c(ccc3cc4c(cc23)OCO4)-c2ccc3c(c2C1CC(=O)O)OCO3 (centres undefined) | 9.55 | – | – | inhibition (INH) (RAW264.7 [2]): 31.45%; Survival (RAW264.7 [4]): 93.19%
CCC(C)C1c2c(ccc(OC)c2OC)-c2ccc3cc4c(cc3c2N1C)OCO4 (centres undefined) | 11.52 | 17 | 91.3 | –
CN1c2c(ccc3cc4c(cc23)OCO4)-c2ccc3c(c2C1CC(=O)[O-])OCO3.[Na+] (centres undefined) | 11.66 | 16.1 | 91.8 | –
COc1ccc2c(c1OC)CN(C)c1c-2ccc2cc3c(cc12)OCO3 [DIHYDROCHELERYTHRINE] | 9.91 | 28.9 | 94.3 | –
C=C(CC1c2c(ccc3c2OCO3)-c2ccc3cc4c(cc3c2N1C)OCO4)C(=O)OC (centres undefined) | 12.66 | 9.4 | 111 | –
CN1c2c(ccc3cc4c(cc23)OCO4)-c2ccc3c(c2C1CC(=O)Nc1ccccc1)OCO3 (centres undefined) | 9.28 | 33.1 | 125 | –
COc1ccc2c(c1OC)C(CC(=O)[O-])N(C)c1c-2ccc2cc3c(cc12)OCO3.[Na+] (centres undefined) | 12.98 | – | 98.8 | inhibition (INH) (RAW264.7 [2]): 6.77%
CCCCNC(=O)CC1c2c(ccc(OC)c2OC)-c2ccc3cc4c(cc3c2N1C)OCO4 (centres undefined) | 8.22 | 41.1 | 92.1 | –
CCC(C)C1c2c(ccc3c2OCO3)-c2ccc3cc4c(cc3c2N1C)OCO4 (centres undefined) | 13.15 | 5.57 | 114 | –
COC(=O)CCC1c2c(ccc3c2OCO3)-c2ccc3cc4c(cc3c2N1C)OCO4 (centres undefined) | 10.94 | 21.4 | 110 | –
Nc1ccc(O)c(C(=O)O)c1 | – | – | – | Activity (Mus musculus [16]): Active; Activity (Mus musculus [17]): Active
